Measurements published in ChEMBL document CHEMBL4017512 (J Med Chem, 2017).

What was measured:
L1210 = experiment: Antiproliferative activity against mouse L1210 cells after 72 hrs by phosphatase assay; type: functional, cell-based; details: L1210, 72 h
HCT-116 = experiment: Antiproliferative activity against human HCT116 cells after 72 hrs by phosphatase assay; type: functional, cell-based; details: HCT-116, 72 h
[1] = Cytotoxicity against human HCT116/VM46 cells assessed as reduction in cell viability after 72 hrs by phosphatase assay; type: cell-based; details: HCT-116/VM46, 72 h

Compound: CC[C@]1(NC(=O)/C=C/c2ccncc2)C[C@H]2CN(CCc3c([nH]c4ccccc34)[C@@](C(=O)OC)(c3cc4c(cc3OC)N(C)[C@H]3[C@@](O)(C(=O)OC)[C@H](OC(C)=O)[C@]5(CC)C=CCN6CC[C@]43[C@@H]65)C2)C1
- IC50 (L1210): 0.6 nM
- IC50 (HCT-116): 0.7 nM
- IC50 [1]: 50 nM

Compound: CC[C@]1(NC(=O)c2ccncc2)C[C@H]2CN(CCc3c([nH]c4ccccc34)[C@@](C(=O)OC)(c3cc4c(cc3OC)N(C)[C@H]3[C@@](O)(C(=O)OC)[C@H](OC(C)=O)[C@]5(CC)C=CCN6CC[C@]43[C@@H]65)C2)C1
- IC50 (L1210): 0.4 nM
- IC50 (HCT-116): 0.4 nM
- IC50 [1]: 55 nM

Compound: CC[C@]1(NC(=O)c2ccccc2F)C[C@H]2CN(CCc3c([nH]c4ccccc34)[C@@](C(=O)OC)(c3cc4c(cc3OC)N(C)[C@H]3[C@@](O)(C(=O)OC)[C@H](OC(C)=O)[C@]5(CC)C=CCN6CC[C@]43[C@@H]65)C2)C1
- IC50 (L1210): 8.4 nM
- IC50 (HCT-116): 7.7 nM
- IC50 [1]: 75 nM

Compound: CC[C@]1(NC(=O)c2ccccc2C)C[C@H]2CN(CCc3c([nH]c4ccccc34)[C@@](C(=O)OC)(c3cc4c(cc3OC)N(C)[C@H]3[C@@](O)(C(=O)OC)[C@H](OC(C)=O)[C@]5(CC)C=CCN6CC[C@]43[C@@H]65)C2)C1
- IC50 (L1210): 55 nM
- IC50 (HCT-116): 50 nM
- IC50 [1]: 540 nM

Compound: CC[C@]1(NC(=O)c2ccc3ccccc3n2)C[C@H]2CN(CCc3c([nH]c4ccccc34)[C@@](C(=O)OC)(c3cc4c(cc3OC)N(C)[C@H]3[C@@](O)(C(=O)OC)[C@H](OC(C)=O)[C@]5(CC)C=CCN6CC[C@]43[C@@H]65)C2)C1
- IC50 (L1210): 40 nM
- IC50 (HCT-116): 40 nM
- IC50 [1]: 270 nM

Compound: CC[C@]1(NC(=O)c2ccc(NC(=O)OC(C)(C)C)c(C)c2)C[C@H]2CN(CCc3c([nH]c4ccccc34)[C@@](C(=O)OC)(c3cc4c(cc3OC)N(C)[C@H]3[C@@](O)(C(=O)OC)[C@H](OC(C)=O)[C@]5(CC)C=CCN6CC[C@]43[C@@H]65)C2)C1
- IC50 (L1210): 5.6 nM
- IC50 (HCT-116): 5.8 nM
- IC50 [1]: 30 nM

Compound: CC[C@]1(NC(=O)c2cccc(SC)c2)C[C@H]2CN(CCc3c([nH]c4ccccc34)[C@@](C(=O)OC)(c3cc4c(cc3OC)N(C)[C@H]3[C@@](O)(C(=O)OC)[C@H](OC(C)=O)[C@]5(CC)C=CCN6CC[C@]43[C@@H]65)C2)C1
- IC50 (L1210): 5.4 nM
- IC50 (HCT-116): 2.3 nM
- IC50 [1]: 20 nM

Compound: CC[C@]1(NC(=O)c2ccc3c(c2)CCN3)C[C@H]2CN(CCc3c([nH]c4ccccc34)[C@@](C(=O)OC)(c3cc4c(cc3OC)N(C)[C@H]3[C@@](O)(C(=O)OC)[C@H](OC(C)=O)[C@]5(CC)C=CCN6CC[C@]43[C@@H]65)C2)C1
- IC50 (L1210): 5.1 nM
- IC50 (HCT-116): 6.7 nM
- IC50 [1]: 60 nM

Compound: CC[C@]1(NC(=O)c2ccc(Br)c(Br)c2)C[C@H]2CN(CCc3c([nH]c4ccccc34)[C@@](C(=O)OC)(c3cc4c(cc3OC)N(C)[C@H]3[C@@](O)(C(=O)OC)[C@H](OC(C)=O)[C@]5(CC)C=CCN6CC[C@]43[C@@H]65)C2)C1
- IC50 (L1210): 60 nM
- IC50 (HCT-116): 40 nM
- IC50 [1]: 80 nM

Compound: CC[C@]1(NC(=O)c2cc(Cl)c(OC)c(Cl)c2)C[C@H]2CN(CCc3c([nH]c4ccccc34)[C@@](C(=O)OC)(c3cc4c(cc3OC)N(C)[C@H]3[C@@](O)(C(=O)OC)[C@H](OC(C)=O)[C@]5(CC)C=CCN6CC[C@]43[C@@H]65)C2)C1
- IC50 (L1210): 3.1 nM
- IC50 (HCT-116): 4.2 nM
- IC50 [1]: 25 nM

Compound: CC[C@]1(NC(=O)c2nc3ccccc3o2)C[C@H]2CN(CCc3c([nH]c4ccccc34)[C@@](C(=O)OC)(c3cc4c(cc3OC)N(C)[C@H]3[C@@](O)(C(=O)OC)[C@H](OC(C)=O)[C@]5(CC)C=CCN6CC[C@]43[C@@H]65)C2)C1
- IC50 (L1210): 60 nM
- IC50 (HCT-116): 60 nM
- IC50 [1]: 190 nM

Compound: CC[C@]1(NC(=O)c2ccc(Oc3ccccc3)cc2)C[C@H]2CN(CCc3c([nH]c4ccccc34)[C@@](C(=O)OC)(c3cc4c(cc3OC)N(C)[C@H]3[C@@](O)(C(=O)OC)[C@H](OC(C)=O)[C@]5(CC)C=CCN6CC[C@]43[C@@H]65)C2)C1
- IC50 (L1210): 5.2 nM
- IC50 (HCT-116): 6.5 nM
- IC50 [1]: 50 nM

Compound: CC[C@]1(NC(=O)c2ccc(OC)c(OC)c2)C[C@H]2CN(CCc3c([nH]c4ccc(F)cc34)[C@@](C(=O)OC)(c3cc4c(cc3OC)N(C)[C@H]3[C@@](O)(C(=O)OC)[C@H](OC(C)=O)[C@]5(CC)C=CCN6CC[C@]43[C@@H]65)C2)C1
- IC50 (L1210): 0.06 nM
- IC50 (HCT-116): 0.08 nM
- IC50 [1]: 0.9 nM

Compound: CC[C@]1(NC(=O)C2CC2)C[C@H]2CN(CCc3c([nH]c4ccccc34)[C@@](C(=O)OC)(c3cc4c(cc3OC)N(C)[C@H]3[C@@](O)(C(=O)OC)[C@H](OC(C)=O)[C@]5(CC)C=CCN6CC[C@]43[C@@H]65)C2)C1
- IC50 (L1210): 5.5 nM
- IC50 (HCT-116): 6.1 nM
- IC50 [1]: 95 nM

Compound: CC[C@]1(NC(=O)C2CCN(C)CC2)C[C@H]2CN(CCc3c([nH]c4ccccc34)[C@@](C(=O)OC)(c3cc4c(cc3OC)N(C)[C@H]3[C@@](O)(C(=O)OC)[C@H](OC(C)=O)[C@]5(CC)C=CCN6CC[C@]43[C@@H]65)C2)C1
- IC50 (L1210): 5300 nM
- IC50 (HCT-116): 4400 nM
- IC50 [1]: 6600 nM

Compound: CCOc1ccc(C(=O)N[C@@]2(CC)C[C@H]3CN(CCc4c([nH]c5ccccc45)[C@@](C(=O)OC)(c4cc5c(cc4OC)N(C)[C@H]4[C@@](O)(C(=O)OC)[C@H](OC(C)=O)[C@]6(CC)C=CCN7CC[C@]54[C@@H]76)C3)C2)cc1Cl
- IC50 (L1210): 4.2 nM
- IC50 (HCT-116): 6.1 nM
- IC50 [1]: 40 nM

Compound: CC[C@]1(NC(=O)c2cncs2)C[C@H]2CN(CCc3c([nH]c4ccccc34)[C@@](C(=O)OC)(c3cc4c(cc3OC)N(C)[C@H]3[C@@](O)(C(=O)OC)[C@H](OC(C)=O)[C@]5(CC)C=CCN6CC[C@]43[C@@H]65)C2)C1
- IC50 (L1210): 1.8 nM
- IC50 (HCT-116): 0.6 nM
- IC50 [1]: 45 nM

Compound: CC[C@]1(NC(=O)c2ccc(C(C)C)cc2)C[C@H]2CN(CCc3c([nH]c4ccccc34)[C@@](C(=O)OC)(c3cc4c(cc3OC)N(C)[C@H]3[C@@](O)(C(=O)OC)[C@H](OC(C)=O)[C@]5(CC)C=CCN6CC[C@]43[C@@H]65)C2)C1
- IC50 (L1210): 5.4 nM
- IC50 (HCT-116): 6.4 nM
- IC50 [1]: 13 nM

Compound: CC[C@]1(NC(=O)c2ccc3c(c2)OCCO3)C[C@H]2CN(CCc3c([nH]c4ccccc34)[C@@](C(=O)OC)(c3cc4c(cc3OC)N(C)[C@H]3[C@@](O)(C(=O)OC)[C@H](OC(C)=O)[C@]5(CC)C=CCN6CC[C@]43[C@@H]65)C2)C1
- IC50 (L1210): 0.6 nM
- IC50 (HCT-116): 0.5 nM
- IC50 [1]: 5.3 nM

Compound: CC[C@]1(NC(=O)c2ccc(C)c(NC(=O)c3ccccc3)c2)C[C@H]2CN(CCc3c([nH]c4ccccc34)[C@@](C(=O)OC)(c3cc4c(cc3OC)N(C)[C@H]3[C@@](O)(C(=O)OC)[C@H](OC(C)=O)[C@]5(CC)C=CCN6CC[C@]43[C@@H]65)C2)C1
- IC50 (L1210): 30 nM
- IC50 (HCT-116): 7.6 nM
- IC50 [1]: 240 nM

Compound: CC[C@]1(NC(=O)c2ccon2)C[C@H]2CN(CCc3c([nH]c4ccccc34)[C@@](C(=O)OC)(c3cc4c(cc3OC)N(C)[C@H]3[C@@](O)(C(=O)OC)[C@H](OC(C)=O)[C@]5(CC)C=CCN6CC[C@]43[C@@H]65)C2)C1
- IC50 (L1210): 4.5 nM
- IC50 (HCT-116): 7 nM
- IC50 [1]: 90 nM

Compound: CC[C@]1(NC(=O)c2ccc(OCc3ccccc3)cc2)C[C@H]2CN(CCc3c([nH]c4ccccc34)[C@@](C(=O)OC)(c3cc4c(cc3OC)N(C)[C@H]3[C@@](O)(C(=O)OC)[C@H](OC(C)=O)[C@]5(CC)C=CCN6CC[C@]43[C@@H]65)C2)C1
- IC50 (L1210): 5.4 nM
- IC50 (HCT-116): 5.7 nM
- IC50 [1]: 55 nM

Compound: CC[C@]1(NC(=O)c2ccc3c(c2)CCCCC3)C[C@H]2CN(CCc3c([nH]c4ccccc34)[C@@](C(=O)OC)(c3cc4c(cc3OC)N(C)[C@H]3[C@@](O)(C(=O)OC)[C@H](OC(C)=O)[C@]5(CC)C=CCN6CC[C@]43[C@@H]65)C2)C1
- IC50 (L1210): 6.1 nM
- IC50 (HCT-116): 4.8 nM
- IC50 [1]: 35 nM

Compound: CC[C@]1(NC(=O)c2ccc(SC)cc2)C[C@H]2CN(CCc3c([nH]c4ccccc34)[C@@](C(=O)OC)(c3cc4c(cc3OC)N(C)[C@H]3[C@@](O)(C(=O)OC)[C@H](OC(C)=O)[C@]5(CC)C=CCN6CC[C@]43[C@@H]65)C2)C1
- IC50 (L1210): 0.4 nM
- IC50 (HCT-116): 0.5 nM
- IC50 [1]: 6.8 nM

Compound: CC[C@]1(NC(=O)c2cccc(S(=O)(=O)F)c2)C[C@H]2CN(CCc3c([nH]c4ccccc34)[C@@](C(=O)OC)(c3cc4c(cc3OC)N(C)[C@H]3[C@@](O)(C(=O)OC)[C@H](OC(C)=O)[C@]5(CC)C=CCN6CC[C@]43[C@@H]65)C2)C1
- IC50 (L1210): 40 nM
- IC50 (HCT-116): 30 nM
- IC50 [1]: 570 nM

Compound: CC[C@]1(NC(=O)c2ccc3cnccc3c2)C[C@H]2CN(CCc3c([nH]c4ccccc34)[C@@](C(=O)OC)(c3cc4c(cc3OC)N(C)[C@H]3[C@@](O)(C(=O)OC)[C@H](OC(C)=O)[C@]5(CC)C=CCN6CC[C@]43[C@@H]65)C2)C1
- IC50 (L1210): 0.6 nM
- IC50 (HCT-116): 0.6 nM
- IC50 [1]: 7.3 nM

Compound: CC[C@]1(NC(=O)c2ccc(Cl)cc2)C[C@H]2CN(CCc3c([nH]c4ccccc34)[C@@](C(=O)OC)(c3cc4c(cc3OC)N(C)[C@H]3[C@@](O)(C(=O)OC)[C@H](OC(C)=O)[C@]5(CC)C=CCN6CC[C@]43[C@@H]65)C2)C1
- IC50 (L1210): 3.1 nM
- IC50 (HCT-116): 3.2 nM
- IC50 [1]: 50 nM

Compound: CC[C@]1(NC(=O)c2ccc(OC)c(Br)c2)C[C@H]2CN(CCc3c([nH]c4ccccc34)[C@@](C(=O)OC)(c3cc4c(cc3OC)N(C)[C@H]3[C@@](O)(C(=O)OC)[C@H](OC(C)=O)[C@]5(CC)C=CCN6CC[C@]43[C@@H]65)C2)C1
- IC50 (L1210): 5.1 nM
- IC50 (HCT-116): 6.2 nM
- IC50 [1]: 40 nM

Compound: CC[C@]1(NC(=O)c2ccc(NC(=O)OC(C)(C)C)cc2)C[C@H]2CN(CCc3c([nH]c4ccccc34)[C@@](C(=O)OC)(c3cc4c(cc3OC)N(C)[C@H]3[C@@](O)(C(=O)OC)[C@H](OC(C)=O)[C@]5(CC)C=CCN6CC[C@]43[C@@H]65)C2)C1
- IC50 (L1210): 0.3 nM
- IC50 (HCT-116): 0.3 nM
- IC50 [1]: 30 nM
